The source of these data is article PMC9851200, “Multiparameter phenotypic screening for endogenous TFEB and TFE3 translocation identifies novel chemical series modulating lysosome function” (Autophagy, 2022).

Common to all, as to assay type: binding
Experiment [1] concerns the target T1, kinases (KINOMEscan panel) (Homo sapiens, UniProt O15075).
T1 sequence (O15075 1-740): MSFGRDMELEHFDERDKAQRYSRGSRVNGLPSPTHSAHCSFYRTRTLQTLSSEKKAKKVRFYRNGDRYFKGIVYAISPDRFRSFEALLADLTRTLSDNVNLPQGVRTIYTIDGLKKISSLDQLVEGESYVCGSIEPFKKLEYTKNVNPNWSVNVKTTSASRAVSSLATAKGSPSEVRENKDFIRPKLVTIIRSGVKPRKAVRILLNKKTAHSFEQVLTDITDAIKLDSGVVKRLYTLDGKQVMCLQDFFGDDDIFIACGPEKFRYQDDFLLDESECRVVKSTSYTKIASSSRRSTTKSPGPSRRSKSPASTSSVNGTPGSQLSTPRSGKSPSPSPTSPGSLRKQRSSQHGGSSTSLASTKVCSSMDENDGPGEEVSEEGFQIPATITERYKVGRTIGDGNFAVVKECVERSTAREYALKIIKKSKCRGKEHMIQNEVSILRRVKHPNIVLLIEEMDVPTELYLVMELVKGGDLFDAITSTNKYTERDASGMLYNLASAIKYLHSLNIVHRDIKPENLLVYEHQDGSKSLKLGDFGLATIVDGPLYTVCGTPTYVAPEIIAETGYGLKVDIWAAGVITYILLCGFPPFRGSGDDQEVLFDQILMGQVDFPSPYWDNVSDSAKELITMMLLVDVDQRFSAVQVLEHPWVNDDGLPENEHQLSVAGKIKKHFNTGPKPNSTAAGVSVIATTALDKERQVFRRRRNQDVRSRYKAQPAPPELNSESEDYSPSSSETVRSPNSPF
Particulars: NEW KINOMEscan.

The target in experiment [2] is T2, kinases (KINOMEscan panel) (Homo sapiens, UniProt O15146).
T2 sequence (O15146 24-869): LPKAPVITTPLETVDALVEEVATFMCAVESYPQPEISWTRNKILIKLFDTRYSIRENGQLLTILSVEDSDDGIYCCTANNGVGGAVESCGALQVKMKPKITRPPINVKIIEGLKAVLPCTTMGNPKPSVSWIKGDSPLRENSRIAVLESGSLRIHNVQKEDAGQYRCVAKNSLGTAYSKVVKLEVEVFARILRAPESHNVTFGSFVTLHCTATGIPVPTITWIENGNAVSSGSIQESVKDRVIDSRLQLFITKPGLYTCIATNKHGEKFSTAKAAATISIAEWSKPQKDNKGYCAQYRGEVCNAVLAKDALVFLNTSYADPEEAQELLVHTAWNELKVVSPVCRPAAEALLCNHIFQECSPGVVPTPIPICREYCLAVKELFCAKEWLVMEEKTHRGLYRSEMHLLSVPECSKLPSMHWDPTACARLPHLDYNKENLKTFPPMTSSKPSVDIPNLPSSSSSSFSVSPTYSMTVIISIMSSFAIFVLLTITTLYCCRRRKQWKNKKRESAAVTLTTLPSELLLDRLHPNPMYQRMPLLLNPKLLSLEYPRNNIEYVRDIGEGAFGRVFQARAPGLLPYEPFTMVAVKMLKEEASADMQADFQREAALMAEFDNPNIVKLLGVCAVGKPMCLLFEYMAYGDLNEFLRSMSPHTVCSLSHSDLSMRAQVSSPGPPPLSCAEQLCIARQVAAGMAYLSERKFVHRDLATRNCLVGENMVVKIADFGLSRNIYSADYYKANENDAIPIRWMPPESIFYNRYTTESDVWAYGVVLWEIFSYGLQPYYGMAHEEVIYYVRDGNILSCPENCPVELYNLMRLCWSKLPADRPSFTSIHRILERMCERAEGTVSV
To be noted: MUSK; NEW KINOMEscan.

The target of experiment [3] is kinases (KINOMEscan panel) (Homo sapiens, UniProt P29317). Particulars: EPHA2; NEW KINOMEscan.
Chain of kinases (KINOMEscan panel) (Homo sapiens, UniProt P29317) (P29317 24-976): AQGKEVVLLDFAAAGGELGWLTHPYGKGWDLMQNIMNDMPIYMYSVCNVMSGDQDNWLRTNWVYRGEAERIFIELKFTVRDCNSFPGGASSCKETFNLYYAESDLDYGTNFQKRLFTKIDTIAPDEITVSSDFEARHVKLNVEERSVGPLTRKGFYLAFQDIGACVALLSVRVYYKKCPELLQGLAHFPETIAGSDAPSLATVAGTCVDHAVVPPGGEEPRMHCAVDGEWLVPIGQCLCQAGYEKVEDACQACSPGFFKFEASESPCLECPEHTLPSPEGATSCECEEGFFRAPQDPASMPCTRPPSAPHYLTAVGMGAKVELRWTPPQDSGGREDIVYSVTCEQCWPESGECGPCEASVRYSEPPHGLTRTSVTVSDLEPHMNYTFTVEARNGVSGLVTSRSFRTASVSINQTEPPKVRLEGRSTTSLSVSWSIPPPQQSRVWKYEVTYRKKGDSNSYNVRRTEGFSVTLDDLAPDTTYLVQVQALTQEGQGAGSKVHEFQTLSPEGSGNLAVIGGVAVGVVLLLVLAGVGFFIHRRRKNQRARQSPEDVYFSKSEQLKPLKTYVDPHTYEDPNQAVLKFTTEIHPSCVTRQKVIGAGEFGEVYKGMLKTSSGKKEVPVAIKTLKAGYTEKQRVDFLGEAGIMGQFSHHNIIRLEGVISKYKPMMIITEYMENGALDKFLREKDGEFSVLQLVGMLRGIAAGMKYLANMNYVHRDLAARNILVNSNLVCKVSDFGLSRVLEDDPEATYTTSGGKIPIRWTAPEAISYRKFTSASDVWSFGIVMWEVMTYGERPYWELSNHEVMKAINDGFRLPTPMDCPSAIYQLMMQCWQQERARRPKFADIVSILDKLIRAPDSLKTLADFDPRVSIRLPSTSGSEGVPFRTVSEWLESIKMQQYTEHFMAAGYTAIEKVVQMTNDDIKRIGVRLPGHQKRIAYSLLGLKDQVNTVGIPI
Experiment [4] addresses kinases (KINOMEscan panel) (Homo sapiens, UniProt Q13627). To be noted: NEW KINOMEscan.
Experiment [5] concerns the target T3, kinases (KINOMEscan panel) (Homo sapiens, UniProt Q9Y616).
T3 sequence (Q9Y616 1-596): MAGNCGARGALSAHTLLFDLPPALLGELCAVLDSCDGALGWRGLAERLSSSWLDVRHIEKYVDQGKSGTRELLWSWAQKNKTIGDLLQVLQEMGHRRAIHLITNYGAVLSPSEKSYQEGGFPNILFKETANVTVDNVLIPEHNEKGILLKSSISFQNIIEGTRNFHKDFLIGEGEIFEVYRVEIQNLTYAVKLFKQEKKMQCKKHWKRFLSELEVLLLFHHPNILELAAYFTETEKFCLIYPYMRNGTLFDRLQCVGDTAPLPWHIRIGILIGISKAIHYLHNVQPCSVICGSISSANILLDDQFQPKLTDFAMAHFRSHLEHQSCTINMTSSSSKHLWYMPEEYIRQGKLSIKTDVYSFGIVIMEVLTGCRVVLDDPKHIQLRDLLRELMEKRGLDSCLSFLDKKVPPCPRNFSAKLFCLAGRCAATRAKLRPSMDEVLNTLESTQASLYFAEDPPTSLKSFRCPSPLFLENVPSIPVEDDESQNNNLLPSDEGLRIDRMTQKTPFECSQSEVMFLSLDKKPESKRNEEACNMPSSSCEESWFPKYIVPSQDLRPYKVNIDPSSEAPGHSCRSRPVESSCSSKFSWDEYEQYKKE
To be noted: IRAK3; NEW KINOMEscan.

As to `Cc1cccc(-c2nc(N(C)c3ccc4ncsc4c3)c3ccccc3n2)n1` [NK-161], the “KINOMEscan DCLK1” value in experiment [1] was found to be 36. In experiment [2], the “KINOMEscan MUSK” value was found to be 0. Also, the “KINOMEscan EPHA2” value in experiment [3] worked out at 2. The “KINOMEscan DYRK1A” value in experiment [4] was found to be 20. Moreover, the “KINOMEscan IRAK3” value in experiment [5] is listed as 7.
On to `Cc1cccc(-c2nc(Nc3ccc4nn(C)cc4c3)c3ccccc3n2)n1` [NK167], for which the “KINOMEscan DCLK1” value in experiment [1] is 49. Besides, the “KINOMEscan MUSK” value in experiment [2] is given as 2. For the same compound, the “KINOMEscan EPHA2” value in experiment [3] is 0. For the same compound, the “KINOMEscan DYRK1A” value in experiment [4] was 0. For the same compound, the “KINOMEscan IRAK3” value in experiment [5] amounted to 0.
